Measurements as given in patent US20040127569A1, “Methods for treatment and prevention of gastrointestinal conditions” (priority 2002, published 2004).
Counter-ions that a name gives are not always drawn. Like-named read-outs stand apart in the source and are kept apart here.

Assays:
i-NOS = i-NOS (Homo sapiens, UniProt P35228); test: i-NOS inhibition, comparison with NIL amides; assay type: biochemical
Human Cartilage = test: Human cartilage explant assay (nitrite production, IL-1β induced); assay type: cell-based; conditions: inhibition of nitrite production, IL-1β stimulated explants
Description: Human Cartilage Explant Assay
Bone pieces are rinsed twice with Dulbecco's Phosphate Buffered Saline (GibcoBRL) and once with Dulbecco's Modified Eagles Medium (GibcoBRL) and placed into a petri dish with phenol red free Minimum Essential Medium (MEM) (GibcoBRL). Cartilage was cut into small explants of approximately 15-45 mg in weight and one or two explants per well are placed into either 96 or 48 well culture plates with 200-500 μL of culture media per well. The culture media was either a custom modification of Minimum Essential Medium(Eagle) with Earle's salts (GibcoBRL) prepared without L-Arginine, without L-Glutamine and without phenol red or a custom modification of serumless Neuman and Tytell (GibcoBRL) medium prepared without L-arginine, without insulin, without ascorbic acid, without L-glutamine and without phenol red. Both are supplemented before use with 100 μM L-Arginine (Sigma), 2 mM L-glutamine, 1×HL-1 supplement (BioWhittaker), […] ascorbic acid (Sigma) and 150 pg/ml recombinant human IL-1β (RD Systems) to induce nitric oxide synthase. Compounds are then added in 10 μL aliquots and the explants incubated at 37° C. with 5% CO2 for 18-24 hours. The day old supernatant is then discarded and replaced with fresh culture media containing recombinant human IL-1β and compound and incubated for another 20-24 hours. […] All samples are done in quadruplicate. Unstimulated controls are cultured in media in the absence of recombinant human IL-1β. IC50 values (Table I) are determined from plotting the percent inhibition of nitrite production at six different concentrations of inhibitor.

[1] = test system: LPS-induced increase in plasma nitrite/nitrate levels; test: In vivo assay: endotoxin-treated rats, plasma nitrite/nitrate; parameters: species or system rat; conditions: oral administration, plasma nitrite/nitrate 5 hours post-treatment
Description: Plasma nitrite/nitrate levels can be determined 5 hours post-treatment.

hiNOS = biological target: T1, hiNOS (Homo sapiens, UniProt P35228); test: Assay for time dependent inhibition, hiNOS; assay type: biochemical; conditions: 60 min preincubation
T1 construct: made in house; host or cells: Sf9 insect cells (baculovirus vector)
Description: Assay for Time Dependent Inhibition
Aliquots (10 μL) are removed at 0, 10, 21 and 60 minutes and immediately added to a citrulline assay enzyme reaction mixture containing L-[2,3-^3H]-arginine and a final L-arginine concentration of 30 μM in a final volume of 100 μL. The reaction is allowed to proceed for 15 minutes at 37° C. and terminated by addition of stop buffer and chromatography with Dowex 50W X-8 cation exchange ion exchange resin as described for the citrulline NOS assay. The % inhibition of NOS activity by an inhibitor was taken as the percent inhibition in activity compared to control enzyme preincubated for the same time in the absence of inhibitor.

[2] = Rattus norvegicus, read-out: ED50

Chain of i-NOS (P35228 whole entry): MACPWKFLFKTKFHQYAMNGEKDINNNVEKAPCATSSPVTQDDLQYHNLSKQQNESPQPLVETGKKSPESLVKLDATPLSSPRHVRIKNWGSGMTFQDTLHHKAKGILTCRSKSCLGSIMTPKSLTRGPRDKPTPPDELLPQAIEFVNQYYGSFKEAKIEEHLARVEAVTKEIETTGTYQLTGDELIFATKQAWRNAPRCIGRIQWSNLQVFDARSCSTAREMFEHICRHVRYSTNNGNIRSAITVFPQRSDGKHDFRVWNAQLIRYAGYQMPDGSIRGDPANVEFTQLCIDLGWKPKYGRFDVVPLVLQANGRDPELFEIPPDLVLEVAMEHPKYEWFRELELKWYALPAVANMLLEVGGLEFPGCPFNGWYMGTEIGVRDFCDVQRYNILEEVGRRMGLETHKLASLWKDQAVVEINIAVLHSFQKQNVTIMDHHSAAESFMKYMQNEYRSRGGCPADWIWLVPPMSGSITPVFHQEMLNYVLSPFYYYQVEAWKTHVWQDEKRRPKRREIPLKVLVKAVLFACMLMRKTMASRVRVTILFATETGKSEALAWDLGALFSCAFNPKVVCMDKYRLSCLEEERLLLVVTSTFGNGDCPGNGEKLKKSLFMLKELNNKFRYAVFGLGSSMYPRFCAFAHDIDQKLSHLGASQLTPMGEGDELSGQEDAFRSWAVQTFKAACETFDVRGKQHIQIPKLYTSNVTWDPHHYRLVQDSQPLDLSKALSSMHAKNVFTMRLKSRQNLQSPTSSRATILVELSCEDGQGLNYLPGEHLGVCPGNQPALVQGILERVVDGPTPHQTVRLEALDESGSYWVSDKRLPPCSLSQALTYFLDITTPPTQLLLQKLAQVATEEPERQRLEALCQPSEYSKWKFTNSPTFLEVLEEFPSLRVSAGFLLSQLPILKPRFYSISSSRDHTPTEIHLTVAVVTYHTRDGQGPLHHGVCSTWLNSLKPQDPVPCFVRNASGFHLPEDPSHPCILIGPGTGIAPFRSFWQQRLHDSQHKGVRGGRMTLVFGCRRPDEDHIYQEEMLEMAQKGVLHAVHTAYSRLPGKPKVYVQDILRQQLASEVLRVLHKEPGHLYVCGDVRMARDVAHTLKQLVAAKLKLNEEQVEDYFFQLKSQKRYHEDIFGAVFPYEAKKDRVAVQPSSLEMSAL

Row | Compound | IC50 (Human Cartilage; Homo sapiens) | ED50 [1, 2] | other results
1 | 2S-amino-6-[(1-iminoethyl)amino]-N-(1H-tetrazol-5-yl)hexanamide, hydrate, dihydrochloride [Example 1] |  |  | i-NOS selectivity relative to NIL amide or NIL dimethylamide (i-NOS; compared with NIL amide or NIL dimethylamide): more selective
2 | CC(=N)NCC(F)=CCC[C@H](N)C(=O)O (mixture of isomers) [Example B, (2S,5E/Z)-2-amino-6-fluoro-7-[(1-iminoethyl)amino]-5-heptenoic acid, dihydrochloride] | 0.2 µM |  | 
3 | CC(=N)NC/C(F)=C\CC[C@H](N)C(=O)O [Example A, (2S,5E)-2-amino-6-fluoro-7-[(1-iminoethyl)amino]-5-heptenoic acid, dihydrochloride, monohydrate] | 0.1 µM | < 0.1 mg/kg | ED50 ([1]; dihydrochloride, monohydrate): <0.1 mg/kg
4 | CC(=N)NC/C(F)=C/CC[C@H](N)C(=O)O [Example D, (2S,5Z)-2-amino-6-fluoro-7-[(1-iminoethyl)amino]-5-heptenoic acid, trihydrochloride, dihydrate] | 2.5 µM | > 10 mg/kg | 
5 | CC(=NO)NC/C(F)=C\CC[C@H](N)C(=O)O [Example G, (2S,5E)-2-amino-6-fluoro-7-[(1-hydroximinoethyl)amino]-5-heptenoic acid] |  | < 0.1 mg/kg | melting point: 198 to 200 °C
6 | CC(=N)NC/C(F)=C\CC[C@H](N)C(=O)Nc1nnn[nH]1 [Example H, (2S,5E)-2-amino-6-fluoro-7-[(1-iminoethyl)amino]-N-(1H-tetrazol-5-yl) 5-heptenamide, dihydrochloride] |  | < 0.3 mg/kg | 
7 | CC(=N)NC/C(F)=C\CC[C@](C)(N)C(=O)O.Cl.Cl [Example HH, (2S,5E)-2-amino-2-methyl-6-fluoro-7-[(1-iminoethyl)amino]-5-heptenoic acid, dihydrochloride] | 0.4 µM | 0.4 mg/kg | 
8 | COC[C@](N)(CSCCNC(C)=N)C(=O)O [Example J, 2-[[[2-[(1-Iminoethyl)amino]ethyl]thio]methyl]-O-methyl-D-serine, dihydrochloride] |  |  | IC50 (Human Cartilage): 8.2 µM
9 | CC(=N)NC/C=C\CC[C@](C)(N)C(=O)O [Example LL, (2S,5Z)-7-acetimidoylamino-2-amino-2-methyl-hept-5-enoic acid] | 0.8 µM | 0.3 mg/kg | 
10 | CC(=N)NCCCC[C@H](N)C(=O)Nc1nnn[nH]1 [Example NN, 2S-amino-6-[(1-iminoethyl)amino]-N-(1H-tetrazol-5-yl)hexanamide, hydrate, dihydrochloride] |  |  | i-NOS inhibitor potency relative to NIL amide or NIL dimethylamide (i-NOS; compared with 2S-amino-6-[(1-iminoethyl)amino]hexanamide (NIL amide) or NIL dimethylamide): more potent
11 | Cl.N=C1CCCC[C@H](CCCC[C@@H](N)C(=O)O)N1.O.O.O [Example V, (αR,2S)-α-aminohexahydro-7-imino-1H-azepine-2-hexanoic acid, trihydrate hydrochloride] | < 10 µM | < 3 mg/kg | 
12 | Cl.N=C1CCCC[C@@H](CCCC[C@H](N)C(=O)O)N1.O.O.O [Example W, (αS,2R)-α-aminohexahydro-7-imino-1H-azepine-2-hexanoic acid, trihydrate hydrochloride] | > 30 µM | > 10 mg/kg | 
13 | N=C1CCCC[C@H](CCCC[C@H](N)C(=O)O)N1 [Example X, (αS,2S)-α-aminohexahydro-7-imino-1H-azepine-2-hexanoic acid, trihydrate hydrochloride] |  |  | IC50 (Human Cartilage): < 10 µM
14 | N=C1CCCC[C@H](CCCC[C@H](N)C(=O)O)N1 [Example Z, (αS,2S)-α-aminohexahydro-7-imino-1H-azepine-2-hexanoic acid, trihydrate hydrochloride] | < 10 µM |  | inhibition at 22 µM (hiNOS): 85%
